Experimental findings from patent publication US20130316022A1, “METHOD TO ENHANCE ANTIMICROBIAL ACTIVITY BY INCREASING pH” (University of Iowa Research Foundation, priority 2012, published 2013) are described below.

Experiment [1] relates to S. aureus isolate 43SA. The experiment is described as follows: Bacterial killing by S. aureus-coated grids placed on tracheal surface in vivo.
Description: Bacteria were cultured to log phase growth and 1×10^8 bacteria were mixed with 0.1 mg/ml N-hydroxysulfosuccinimide (sulfo-NHS)-biotin (Thermo Scientific) for 1 hour at room temperature. Streptavidin-coated grids were then incubated with biotinylated bacteria for 30 minutes and rinsed in PBS.
Bacteria-coated grids were used in three preparations. They were placed on the airway surface in vivo in pigs. They were tested in ASL removed from pigs after methacholine stimulation. They were also placed on the apical surface of primary cultures of differentiated airway epithelia. In each case, after removal from ASL, they were immediately (2-3 seconds) rinsed with PBS and then immersed in PBS containing the fluorescent indicators SYTO 9 and propidium iodide (Live/Dead BacLight™ Bacterial Viability assay, Invitrogen). Propidium iodide staining and this assay indicate the percentage of dead cells (Invitrogen, Molecular Probes product information and Fig. S7). […]
(§1) For each experimental condition, time point, and/or animal, 2 or 3 grids were examined. For each grid, all live and dead bacteria were counted in 5-16 individual microscopic (60×) fields; each microscopic field contained about 100-1000 bacteria. […]
(§2) To decrease airway pH in non-CF pigs, CO2 concentration was controlled in a humidified chamber (100% measured relative humidity, 25-30° C.) using 0 or 15% CO2 and 21% O2 in N2.
Experiment [2] can be described thus: ASL pH measured in vivo with pH-sensitive planar optode on tracheal surface. Further details: species or system pig.
Excerpt: To assess pH in vivo, we used non-invasive dual lifetime referencing to interrogate a 3×3 mm planar optode (pH sensitive foil, PreSens GmbH, Regensburg, Germany)^13 applied directly to the tracheal surface. The device used to transmit and receive the excitation and emission light was a single channel pH meter (pH-1 mini; PreSens GmbH). The tip of the fiberoptic pH meter was kept at the same distance from the tracheal surface in all samples and confirmed by recording the amplitude registered by the device. Calibration before each set of measurements was done by placing the planar optode on the surface of a flat filter soaked in standard pH buffers.
as §2
The subject of experiment [3] is S. aureus. Conditions: bacteria on grids exposed for 30 seconds.
Description: Gold grids (TEM grids, 200 mesh, Ted Pella Inc.) were immersed in 1 mM 11-mercaptoundecanoic acid (HS(CH2)10COOH, MUA, Aldrich) solution for 30 minutes at room temperature and then exposed to 1-ethyl-3-(3-diethylaminopropyl)carbodiimide (EDC) and N-hydroxysuccinimide (NHS) (molar ratio 1:2) for 30 minutes to activate the carboxyl groups of MUA. Grids were then placed in a phosphate buffer solution (PBS), pH 7.4, containing 10 μg/ml streptavidin (Sigma) for 30 minutes and then rinsed with PBS. Streptavidin-coated grids were immersed in 1 M glycine for 30 minutes to quench the reaction and then rinsed with PBS. We used S. aureus isolate 43SA (isolated from a CF pig with pulmonary infection^5), and P. aeruginosa PAO1. […] Bacteria were cultured to log phase growth and 1×10^8 bacteria were mixed with 0.1 mg/ml N-hydroxysulfosuccinimide (sulfo-NHS)-biotin (Thermo Scientific) for 1 hour at room temperature. Streptavidin-coated grids were then incubated with biotinylated bacteria for 30 minutes and rinsed in PBS.
Bacteria-coated grids were used in three preparations. They were placed on the airway surface in vivo in pigs. […]
as §1

Regarding `O=C=O` [CO2, reference compound], the “% dead” value in experiment [1] (non-CF pigs, 15% CO2, grids on surface for 30 seconds) is on record as 18.5 ± 6.8 (4) %. In addition, in experiment [2] (non-CF pigs, tracheas exposed to 15% CO2 in vivo), the “ASL pH” value is recorded as 6.89 ± 0.15 (6). Turning to `O=C([O-])O.[Na+]` [NaHCO3], in experiment [1] (CF pigs, 50 μL 100 mM aerosolized onto airway surface, grids 30 seconds), the “% dead” value is recorded as 64.4 ± 7.0 (5) %. Besides, the “ASL pH” value in experiment [2] (CF pigs, 50 μL 100 mM aerosolized onto airway surface) is 7.43 ± 0.30 (7).

Take ethanol [70% alcohol]: in experiment [3], the “% dead” value was found to be 97%.
